How the values were obtained:
Experiment in all cases: IRES screening, Gaussia luciferase from LNP-oRNA (Table 27)
Conditions in all cases: Gaussia luciferase luminescence in supernatant 48 hours after LNP-oRNA transfection, normalized to control (caprine kobuvirus IRES)
[1] = system: primary human hepatocytes
[2] = system: activated primary human T cells
[3] = system: primary human skeletal myotubes

SMILES	[Mod] PHH Fold Change [1]	[Mod] T Fold Change [2]	[Mod] Fold Change Myo [3]
CC(C)CCC(COC(=O)CCCCCCCC(CCCCCCCC(=O)OCC(CCC(C)C)C(C)C)OC(=O)CCCn1ccnc1)C(C)C (stereo not drawn) [Lipid 10a-97]	1.163 Fold Change	0.3532 Fold Change	0.2602 Fold Change
Cc1nccn1CCCC(=O)OC(CCCCCCCCC(=O)OCCC(C)CC(C)(C)C)CCCCCCCCC(=O)OCCC(C)CC(C)(C)C (stereo not drawn) [Lipid 10a-107]	1.119 Fold Change	0.9371 Fold Change	0.2879 Fold Change
CCCCCCCCC(CCCCCC)C(=O)OCCCCCCN(CCCCCCOC(=O)C(CCCCCC)CCCCCCCC)CCn1ccnc1 (stereo not drawn) [Lipid 10a-129]	0.6689 Fold Change	0.08945 Fold Change	0.05369 Fold Change
CCCCC/C=C\C/C=C\CCCCCCCC(=O)OCC(COC(=O)CCC(OCCCCCCCC)OCCCCCCCC)COC(=O)OCCCn1ccnc1 (stereo not drawn) [Lipid 10a-140]	0.7154 Fold Change	0.3995 Fold Change	0.1601 Fold Change
Cc1nccn1CCCC(=O)OC(CCCCCCCC(=O)OCCC(C)CCC(C)C)CCCCCCCC(=O)OCCC(C)CCC(C)C (stereo not drawn) [Lipid 10a-103]	0.6471 Fold Change	0.03951 Fold Change	0.04558 Fold Change
CCCCC(C)CCC(=O)OCCCCCCN(CCCCCCOC(=O)CCC(C)CCCC)CCCn1ccnc1 (stereo not drawn) [Lipid 10a-112]	0.8075 Fold Change	0.637 Fold Change	0.3711 Fold Change
CCCCCCCCCOC(=O)CCCCCCCN(CCCCCCCC(=O)OC(CCCCCCCC)CCCCCCCC)CCC(C)n1ccnc1 (stereo not drawn) [Lipid 10a-131]	0.5348 Fold Change	0.03336 Fold Change	0.03951 Fold Change
CCCCCCCCCN(CCCn1ccnc1)C(CCCCCCCCC(=O)OCC(CCCC)CCCCCC)CCCCCCCCC(=O)OCC(CCCC)CCCCCC (stereo not drawn) [Lipid 10a-142]	0.468 Fold Change	0.02743 Fold Change	0.03852 Fold Change
CCCCCCCCC(CCCCCC)C(=O)OCCCCCCN(CCCCCCOC(=O)C(CCCCCC)CCCCCCCC)CCC(C)n1ccnc1 (stereo not drawn) [Lipid 10a-130]	0.5728 Fold Change	0.06076 Fold Change	0.04058 Fold Change
CCCCCCCCCOC(=O)CCCCCCCN(CCCCCCCC(=O)OC(CCCCCCCC)CCCCCCCC)CCn1ccnc1 [Lipid 10a-132]	0.5643 Fold Change	0.03118 Fold Change	0.03998 Fold Change
CC(CCOC(=O)CCCCCCCCC(CCCCCCCCC(=O)OCCC(C)CC(C)(C)C)OC(=O)CCCn1ccnc1)CC(C)(C)C (stereo not drawn) [Lipid 10a-105]	0.642 Fold Change	0.329 Fold Change	0.2496 Fold Change
Cc1nccn1CCCN(CCCCCCCC(=O)OCCC(C)CCC(C)C)CCCCCCCC(=O)OCCC(C)CCC(C)C (stereo not drawn) [Lipid 10a-102]	0.5141 Fold Change	0.031 Fold Change	0.04469 Fold Change
CC(C)=CCCC(C)CC(=O)OCCCCCCN(CCCCCCOC(=O)CC(C)CCC=C(C)C)CCCn1ccnc1C (stereo not drawn) [Lipid 10a-125]	0.6492 Fold Change	0.6418 Fold Change	0.3827 Fold Change
